From US20080227801A1, “Pharmaceutical Compositions Containing Erythrina Mulungu Derivatives, Processes for their Production and Uses Thereof” (priority 2005, published 2008)
“And” between values parts separate entries of the source, which are not always exact repeats. Identical values can stand only once. “Also recorded” adds a separate entry of the source.

What was measured:
Format in all cases: in vivo, Swiss mice
[1] = test system: house mice; test: Labyrinth in high T (elevated T maze) test; set-up: key to Escape: latency in seconds (maximum 300 s); conditions: for Escape / Inhibitory avoidance E1 / Inhibitory avoidance E2 / Inhibitory avoidance E3 / Inhibitory avoidance E4 / Inhibitory avoidance LB (basal latency): acute, mean ± EPM; for Anxiolytic effect in Labyrinth in high T (in words): 3 and 10 mg/kg, oral via
Experimental: Swiss mice weighing 25-35 g from the central animal laboratory of the Sao Paulo State University (UNESP/Araraquara) were used.
Accordingly, lyophilized hydroalcoholic extract (50, 100, 200 and 400 mg/kg) was used, in addition to F2 (3, 6, 10, 17 and 30 mg/kg) and the alkaloids erythrartine, erythravine and 11-OH-erythravine (3 and 10 mg/kg), administered via oral intake by gavage. The standard drug used was Diazepam (DZP) in a dose of 2 mg/kg (via intraperitoneal, i.p).
The Labyrinth in high T is made with transparent glass walls and wooden floor and consists of a closed arm (30×5×15 cm) perpendicularly linked to two open arms (30×5×0.25 cm), raised at 38.5 cm above the floor by a wooden support. In this test, five consecutive measures of inhibitory avoidance were performed (basal latency, avoidances 1, 2, 3 and 4) and one measure of escape from the open arms, with intervals of 30 seconds between each attempt. In the avoidance measures, the animals were placed in the distal section of the closed arm and the exit latency of this arm, on all four paws, towards the open arm was timed. In the escape measure, the animals were placed in the extremity of the right-hand open arm and the departure time from this arm was measured. The animals' maximum length of stay in the arms of the maze during these measures was 300 seconds. The apparatus was cleaned with ethanol 20% after testing each animal.
The results obtained from the Labyrinth in high T submitted to a two-way analysis of variance (ANOVA), with treatment being an independent factor and attempts being a dependent factor.

[2] = test system: house mouse; test: Locomotion activity test in the arena
Source text: In order to avoid false positives or negatives, immediately after testing in the elevated T maze, the animals were submitted to the locomotive activity test in the arena.
The apparatus consists of a white polypropylene box with a rectangular base (40×48 cm), surrounded by 30 cm high walls. The floor is subdivided into 30 squares (8×8 cm).
In this test, the animals were placed in the center of the box and their activity was video recorded for five minutes, for subsequent analysis of the number of crossings of the quadrant areas and number of stretch-attend postures (WALSH and CUMMINS, 1976).
The results obtained with the arena were submitted to a one-way ANOVA followed by the Duncan post hoc test.

[3] = test system: house mouse; test: Clear-dark (light/dark) transition model; conditions: for Number of transitions between two compartments / Time spent in illuminated compartment: acute, mean ± EPM; for Effect on time spent in illuminated compartment (in words): versus control; for Anxiolytic effect in clear-dark model transition (in words): oral via, doses of 3 and 10 mg/kg
[4] = 2 mg/kg i.p., acute, five minutes, mean ± EPM
[5] = 3 and 10 mg/kg oral, one-way ANOVA

Question: For `COc1cc2c(cc1OC)[C@]13C[C@@H](O)C=CC1=CCN3C[C@H]2O` [11-OH, 11-hydroxy-erythravine], which Escape ([1]; 3 mg/kg oral) is on record?
Answer: The Escape was 21.5 ± 3.7.

Question: And the “Inhibitory avoidance E1” value ([1]; 3 mg/kg oral)?
Answer: Its value is 41.8 ± 14.2.

Question: And the “Inhibitory avoidance E2” value ([1]; 3 mg/kg oral)?
Answer: Its value is 96.0 ± 34.4.

Question: And the “Inhibitory avoidance E3” value ([1]; 3 mg/kg oral)?
Answer: Its value is 132.3 ± 39.7.

Question: And the “Inhibitory avoidance E4” value ([1]; 3 mg/kg oral)?
Answer: The value was 194.4 ± 39.5.

Question: And the “Inhibitory avoidance LB (basal latency)” value ([1]; 3 mg/kg oral)?
Answer: The value was 30.7 ± 5.8.

Question: And the Escape ([1]; 10 mg/kg oral)?
Answer: Its Escape is 26.8 ± 4.8.

Question: What about the “Inhibitory avoidance E1” value ([1]; 10 mg/kg oral) of the same compound?
Answer: The value was 30.0 ± 6.1.

Question: What about the “Inhibitory avoidance E2” value ([1]; 10 mg/kg oral) of the same compound?
Answer: Its value is 54.0 ± 21.1.

Question: What about the “Inhibitory avoidance E3” value ([1]; 10 mg/kg oral) of the same compound?
Answer: The value was 66.6 ± 30.3.

Question: And the “Inhibitory avoidance E4” value ([1]; 10 mg/kg oral)?
Answer: The value was 94.8 ± 31.7.

Question: And the “Inhibitory avoidance LB (basal latency)” value ([1]; 10 mg/kg oral)?
Answer: Its value is 22.6 ± 3.5.

Question: What about the “Anxiolytic effect in Labyrinth in high T (in words)” value (from here on “Anxiolytic effect in Labyrinth”) [1] of the same compound?
Answer: The value was “anxiolytic effect”.

Question: And the “Response on the locomotion activity test at the arena (in words)” value ([2]; 3 mg/kg)?
Answer: The value was “did not have an increase of the response”.

Question: What about the “Number of transitions between two compartments” value ([3]; 3 mg/kg oral) of the same compound?
Answer: The value was 22.67 ± 2.66.

Question: And the “Time spent in illuminated compartment” value ([3]; 3 mg/kg oral)?
Answer: The value was 98.67 ± 13.35.

Question: And the “Number of transitions between two compartments” value ([3]; 10 mg/kg oral)?
Answer: Its value is 14.00 ± 1.93.

Question: What about the “Time spent in illuminated compartment” value ([3]; 10 mg/kg oral) of the same compound?
Answer: The value was 127.22 ± 21.83.

Question: What about the “Effect on number of transitions between two compartments (in words)” value (“Effect on number” for short) ([3]; dose of 3 mg/kg, P<0.05, listed as 11-hidroxi-erhytravine, 3 mg/kg) of the same compound?
Answer: The value was “increased the transitions”.

Question: And the “Effect on number” value ([3]; dose of 3 mg/kg, P<0.05, listed as 11-hidroxi-erythravine, 3 mg/kg)?
Answer: Its value is “increased”.

Question: And the “Effect on time spent in illuminated compartment (in words)” value (shortened to “Effect on time spent”) ([3]; dose of 10 mg/kg, listed as 11-hidroxi-erhytravine, 10 mg/kg)?
Answer: Its value is “anxiolytic effect”.

Question: And the “Effect on time spent” value ([3]; dose of 10 mg/kg, listed as 11-hidroxi-erythravine, 10 mg/kg)?
Answer: The value was “increased expressively”.

Question: And the “Anxiolytic effect in clear-dark model transition (in words)” value [3]?
Answer: Its value is “anxiolytic effect”.

Question: For `CN1C(=O)CN=C(c2ccccc2)c2cc(Cl)ccc21` [DZP, Diazepam, reference compound], which Escape ([1]; 2 mg/kg i.p.) is on record?
Answer: Its Escape is 19.0 ± 3.2 and 28.4 ± 7.1 and 27.1 ± 4.6.

Question: And the “Inhibitory avoidance E1” value ([1]; 2 mg/kg i.p.)?
Answer: Its value is 15.3 ± 3.8 and 19.1 ± 4.0 and 11.4 ± 1.4.

Question: And the “Inhibitory avoidance LB (basal latency)” value ([1]; 2 mg/kg i.p.)?
Answer: The value was 24.6 ± 4.1 and 25.4 ± 4.1 and 25.6 ± 5.9.

Question: And the Mixings [2, 4]?
Answer: Its Mixings is 167.4 ± 23.6 and 169.11 ± 33.2.

Question: What about the Raisings [2, 4] of the same compound?
Answer: The Raisings was 27.33 ± 2.3 and 21.11 ± 6.7.

Question: And the “Number of transitions between two compartments” value ([3]; 2 mg/kg i.p.)?
Answer: Its value is 20.10 ± 2.93 and 13.92 ± 1.34 and 17.42 ± 2.40.

Question: What about the “Time spent in illuminated compartment” value ([3]; 2 mg/kg i.p.) of the same compound?
Answer: Its value is 144.20 ± 17.52 and 130.00 ± 16.76 and 140.67 ± 18.59.

Question: And the “Effect on time spent” value ([3]; DZP 2 mg/kg)?
Answer: The value was “expressively greater; also recorded: increased expressively; also recorded: observed only for the animals group treated with DZP”.

Question: With `COc1cc2c(cc1OC)[C@]13C[C@@H](O)C=CC1=CCN3CC2` [ERI, erythravine] as the compound, how does the “Anxiolytic effect in Labyrinth” value [1] read?
Answer: Its value is “anxiolytic effect”.

Question: What about the “Number of transitions between two compartments” value ([3]; 3 mg/kg oral) of the same compound?
Answer: The value was 19.70 ± 2.96.

Question: What about the “Time spent in illuminated compartment” value ([3]; 3 mg/kg oral) of the same compound?
Answer: The value was 115.40 ± 18.58.

Question: And the “Number of transitions between two compartments” value ([3]; 10 mg/kg oral)?
Answer: Its value is 19.80 ± 1.32.

Question: What about the “Time spent in illuminated compartment” value ([3]; 10 mg/kg oral) of the same compound?
Answer: The value was 112.00 ± 10.95.

Question: And the “Effect on number” value [3, 5]?
Answer: Its value is “did not show significant differences between groups”.

Question: What about the “Effect on time spent” value ([3]; oral doses of 3 mg/kg and 10 mg/kg) of the same compound?
Answer: Its value is “expressively greater; also recorded: anxiolytic effect”.

Question: And the “Anxiolytic effect in clear-dark model transition (in words)” value [3]?
Answer: Its value is “anxiolytic effect”.

Question: Which “Anxiolytic effect in Labyrinth” value [1] does the source give for `COc1cc2c(cc1OC)[C@]13C[C@@H](OC)C=CC1=CCN3C[C@H]2O` [ERIT, erythrartine] here?
Answer: The value was “anxiolytic effect”.

Question: What about the “Number of transitions between two compartments” value ([3]; 3 mg/kg oral) of the same compound?
Answer: The value was 13.00 ± 1.56.

Question: And the “Time spent in illuminated compartment” value ([3]; 3 mg/kg oral)?
Answer: The value was 67.67 ± 8.33.

Question: What about the “Number of transitions between two compartments” value ([3]; 10 mg/kg oral) of the same compound?
Answer: The value was 14.25 ± 1.59.

Question: What about the “Time spent in illuminated compartment” value ([3]; 10 mg/kg oral) of the same compound?
Answer: Its value is 83.42 ± 14.17.

Question: And the “Effect on number” value [3, 5]?
Answer: Its value is “did not show signified effect”.
